1 compound from US11731977B2, “SGC stimulators” (Cyclerion Therapeutics, Inc., priority 2016, dated 2023) can be followed below.

Read-outs that look alike come from different tables or passages of the source.

Experiment [1] concerns cAMP response element-binding protein (CREB). The experiment is described as follows: pCREB phosphorylation in rat primary neurons (Example 12). Type of experiment: cell-based. The settings on record: Primary neuron, 10 μM DETA-NONOate. An excerpt: Objective. To assess the ability of Compound I-1 to activate cAMP response element-binding protein (CREB) in rat primary neurons. CREB is a cellular transcription factor. It binds to DNA sequences called cAMP response elements (CRE), and regulates transcription of the downstream genes (See Bourtchuladze R, et al., Cell 1994; 79 (1): 59-68). […] CREB proteins are activated by phosphorylation of Serine 133 by various kinases, including cAMP-dependent protein kinase or Protein Kinase A (PKA), cGMP-dependent protein kinase or Protein Kinase G (PKG), and Ca2+/calmodulin-dependent protein kinases. (See Shaywitz A J and Greenberg M E, Annual Review of Biochemistry 1999; 68 (1): 821-861 and Wong J C, et al., J Cell Biochem 2012: 113(11):3587-98). Stimulation of CREB could have therapeutic benefits for diseases in which cognition, neuronal plasticity, and or neuronal function is impaired.
Compounds. Compound I-1 was dissolved in DMSO as a 10 mM solution and stored at −20° C. […]
Assay Conditions. […] Medium was removed and cell were lysed and assay was performed according to Cisbio protocol (phospho-CREB (Ser133) catalog #64CREPEG) and the plate was read using Envision instrument (PerkinElmer).
Data Analysis. Data were analyzed with a 4-parameter fit (log(agonist) vs. response—variable slope) using GraphPad Prism Software v.7. […]

Another experiment concerns rats. Briefly: Acute and tonic pain: healthy rats, paw pressure test (Example 13). As to conditions: Compound I-1 p.o. 10 mg/kg, 120 minutes after treatment.
Experiment [2] relates to Sprague-Dawley rats, streptozotocin model. The experiment is described as follows: Rat model of diabetic neuropathy (STZ model), paw pressure test (Example 14). It is filed as in vivo. The settings on record: Compound I-1 10 mg/kg p.o., mean±s.e.m.

In the case of `Fc1ccccc1Cc1nc(-c2nc(C(F)(F)F)n[nH]2)cn2ccnc12` [Compound I-1, 8-(2-fluorobenzyl)-6-(3-(trifluoromethyl)-1H-1,2,4-triazol-5-yl)imidazo[1,2-a]pyrazine], the EC50 in experiment [1] (read-out: 95% confidence interval of EC50, phosphorylation of CREB at Ser133) was 0.5 to 17.8 nM; in experiment [1] (0.5 h, 30 min, read-out: EC50, phosphorylation of CREB at Ser133), 3 nM. Further, the “% of activity vs. vehicle” value in the experiment on rats is given as −6%. Further, the “nociceptive threshold (paw pressure test)” value turned out to be 328 ± 32.6 g in experiment [2] (D18, 60 min post administration, gabapentin 100 mg/kg p.o., morphine 4 mg/kg s.c.); 387 ± 30.2 g in experiment [2] (D18, 120 min post administration, gabapentin 100 mg/kg p.o., morphine 4 mg/kg s.c.); 319 ± 23.1 g in experiment [2] (D18, 180 min post administration); 346 ± 20.5 g in experiment [2] (D21, 120 min after dosing, gabapentin 100 mg/kg p.o., morphine 4 mg/kg s.c.); 259 ± 25.6 g in experiment [2] (D21, baseline prior to administration (Cmin, daily dosing from D18)).

A word on the EC50: it is the concentration needed to bring the measured effect to its halfway point.
